Data as given in US12473339B2, “Acylated glucagon analogues” (Zealand Pharma A/S, priority 2013, dated 2025).
*1 amine or outer side, *2 acyl side, *3 side chain or, on linkers, in order; H or OH if unused. Where a SMILES comes first, the peptide text is derived from it. Side-chain parts run from the residue outwards. [ ]: non-standard residue; d: D form. The star is where a group is joined. C18 diacid = O=C(O)CCCCCCCCCCCCCCCCC(=O)*; γGlu = O=C(O)[C@H](CCC(=O)[*:2])N[*:1]; AEEA = NCCOCCOCC(=O)O; Aib = CC(C)(N)C(=O)O

Biological target: T1, human glucagon-like peptide 1 receptor (GLP-1R) (Homo sapiens, UniProt P43220)
T1 construct: expressed in transfected cells
T1 sequence (P43220 24-463): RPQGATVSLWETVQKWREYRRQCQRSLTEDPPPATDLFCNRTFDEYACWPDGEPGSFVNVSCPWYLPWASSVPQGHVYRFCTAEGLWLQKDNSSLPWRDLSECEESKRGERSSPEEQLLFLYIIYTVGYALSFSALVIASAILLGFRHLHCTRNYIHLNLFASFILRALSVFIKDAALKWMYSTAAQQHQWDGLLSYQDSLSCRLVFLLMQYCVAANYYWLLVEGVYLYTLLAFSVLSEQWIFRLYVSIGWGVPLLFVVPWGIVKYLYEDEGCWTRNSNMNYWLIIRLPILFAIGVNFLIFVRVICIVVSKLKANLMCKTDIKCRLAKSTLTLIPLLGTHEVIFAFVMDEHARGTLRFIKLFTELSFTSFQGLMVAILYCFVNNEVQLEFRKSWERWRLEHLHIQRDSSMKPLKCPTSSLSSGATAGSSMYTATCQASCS
Assay: GLP-1 receptor efficacy assay (cAMP AlphaScreen, CHO cells)
Assay type: cell-based
Settings: EC50 [GLP-1R] / EC50 [Glucagon-R], human receptors in CHO-K1
From the text: The cDNA encoding either the human glucagon receptor (Glucagon-R) (primary accession number P47871) or the human glucagon-like peptide 1 receptor (GLP-1R) (primary accession number P43220) were synthesized and cloned into a mammalian expression vector containing a Zeocin resistance marker.
The mammalian expression vectors encoding the Glucagon-R or the GLP-1-R were transfected into Chinese hamster ovary (CHO) cells by the Attractene method. Stably expressing clones were obtained by Zeocin selection (250 μg/mL) upon limited dilution of cells resistant to the selection pressure. Glucagon-R and GLP-1-R cell clones expressing were picked, propagated and tested in the Glucagon-R and GLP-1-R efficacy assays as described below. One Glucagon-R expressing clone and one GLP-1-R expressing clone were chosen for compound profiling.
CHO cells expressing the human Glucagon-R, or human GLP-1-R were seeded 24 hours prior to the assay at 30,000 cells per well in 96-well microtiter plates in culture in 100 μl growth medium. On the day of analysis, growth medium was removed and the cells were washed once with 200 μl of assay buffer (Krebs-Ringer-buffer—KRBH). The buffer was removed and the cells were incubated for 15 min at room temperature in 10 μl KRBH (KRBH+10 mM HEPES, 5 mM NaHCO3, 0.1% (V/V) BSA) with 0.1 mM IBMX in deionized water containing increasing concentrations of test peptides. The reaction was stopped by the addition of lysis buffer (0.1% w/v BSA, 5 mM HEPES, 0.3% v/v Tween-20). After cell lysis for 10 min at room temperature, lysates were transferred to 384-well plates and 10 μl of acceptor/donorbead mixture as contained in the AlphaScreen™ cAMP Functional Assay Kit was added. After one hour of incubation at room temperature in the dark, the cAMP content was determined applying the AlphaScreen™ cAMP Functional Assay Kit from Perkin-Elmer according to manufacturer instructions. EC50 and relative efficacies compared to reference compounds (glucagon and GLP-1) were calculated applying computer aided curve fitting. The GLP-1/glucagon ratio is calculated as defined earlier.

Row | SMILES | Ratio GLP-1/Glucagon
1 | CC[C@H](C)[C@H](NC(=O)[C@H](Cc1ccccc1)NC(=O)[C@H](CC(=O)O)NC(=O)[C@H](CCCCN)NC(=O)[C@H](C)NC(=O)[C@H](C)NC(=O)[C@H](CCCNC(=N)N)NC(=O)[C@H](CCCCNC(=O)CNC(=O)CNC(=O)[C@H](CO)NC(=O)CNC(=O)[C@H](CO)NC(=O)CNC(=O)CC[C@H](NC(=O)CCCCCCCCCCCCCCCCC(=O)O)C(=O)O)NC(=O)[C@H](CCC(=O)O)NC(=O)[C@H](CC(C)C)NC(=O)[C@H](Cc1ccc(O)cc1)NC(=O)[C@H](CCCCN)NC(=O)[C@H](CO)NC(=O)[C@H](Cc1ccc(O)cc1)NC(=O)[C@H](CC(=O)O)NC(=O)[C@H](CO)NC(=O)[C@@H](NC(=O)[C@H](Cc1ccccc1)NC(=O)[C@@H](NC(=O)CNC(=O)[C@H](CCC(N)=O)NC(=O)C(C)(C)NC(=O)[C@@H](N)Cc1c[nH]cn1)[C@@H](C)O)[C@@H](C)O)C(=O)N[C@@H](CCC(=O)O)C(=O)N[C@@H](Cc1c[nH]c2ccccc12)C(=O)N[C@@H](CC(C)C)C(=O)N[C@@H](CCC(=O)O)C(=O)N[C@@H](CO)C(=O)N[C@@H](C)C(N)=O [Compound 6, H-H-Aib-QGTFTSDYSKYLE-K([17-carboxy-heptadecanoyl]-isoGlu-GSGSGG)-RAAKDFIEWLESA-NH2] | 3.25
2 | CC[C@H](C)[C@H](NC(=O)[C@H](Cc1ccccc1)NC(=O)[C@H](CC(=O)O)NC(=O)[C@H](CCCCN)NC(=O)[C@H](C)NC(=O)[C@H](C)NC(=O)[C@H](CCCNC(=N)N)NC(=O)[C@H](CCCCNC(=O)CNC(=O)CNC(=O)[C@H](CO)NC(=O)CNC(=O)[C@H](CO)NC(=O)CNC(=O)CC[C@H](NC(=O)CCCCCCCCCCCCCCCCC(=O)O)C(=O)O)NC(=O)[C@H](CC(=O)O)NC(=O)[C@H](CC(C)C)NC(=O)[C@H](Cc1ccc(O)cc1)NC(=O)[C@H](CCCCN)NC(=O)[C@H](CO)NC(=O)[C@H](Cc1ccc(O)cc1)NC(=O)[C@H](CC(=O)O)NC(=O)[C@H](CO)NC(=O)[C@@H](NC(=O)[C@H](Cc1ccccc1)NC(=O)[C@@H](NC(=O)CNC(=O)[C@H](CCC(N)=O)NC(=O)C1(NC(=O)[C@@H](N)Cc2c[nH]cn2)CCC1)[C@@H](C)O)[C@@H](C)O)C(=O)N[C@@H](CCC(=O)O)C(=O)N[C@@H](Cc1c[nH]c2ccccc12)C(=O)N[C@@H](CC(C)C)C(=O)N[C@@H](CCC(=O)O)C(=O)N[C@@H](CO)C(=O)N[C@@H](C)C(N)=O [Compound 7, H-H-Ac4c-QGTFTSDYSKYLD-K([17-carboxy-heptadecanoyl]-isoGlu-GSGSGG)-RAAKDFIEWLESA-NH2] | 8.82
3 | CC[C@H](C)[C@H](NC(=O)[C@H](Cc1ccccc1)NC(=O)[C@H](CC(=O)O)NC(=O)[C@H](Cc1c[nH]cn1)NC(=O)[C@H](C)NC(=O)[C@H](C)NC(=O)[C@H](CCCNC(=N)N)NC(=O)[C@H](CCCCNC(=O)COCCOCCNC(=O)COCCOCCNC(=O)CC[C@H](NC(=O)CCCCCCCCCCCCCCCCC(=O)O)C(=O)O)NC(=O)[C@H](CCC(=O)O)NC(=O)[C@H](CC(C)C)NC(=O)[C@H](Cc1ccc(O)cc1)NC(=O)[C@H](CCCCN)NC(=O)[C@H](CO)NC(=O)[C@H](Cc1ccc(O)cc1)NC(=O)[C@H](CC(=O)O)NC(=O)[C@H](CO)NC(=O)[C@@H](NC(=O)[C@H](Cc1ccccc1)NC(=O)[C@@H](NC(=O)CNC(=O)[C@H](CCC(N)=O)NC(=O)C(C)(C)NC(=O)[C@@H](N)Cc1c[nH]cn1)[C@@H](C)O)[C@@H](C)O)C(=O)N[C@@H](CCC(=O)O)C(=O)N[C@@H](Cc1c[nH]c2ccccc12)C(=O)N[C@@H](CC(C)C)C(=O)N[C@@H](CCC(=O)O)C(=O)N[C@@H](CO)C(=O)N[C@@H](C)C(N)=O [Compound 8, H-H-Aib-QGTFTSDYSKYLE-K([17-carboxy-heptadecanoyl]-isoGlu-Peg3-Peg3)-RAAHDFIEWLESA-NH2] (H-H[Aib]QGTFTSDYSKYLEK([AEEA-AEEA-γGlu-C18 diacid])RAAHDFIEWLESA-NH2) | 2.58
4 | CC[C@H](C)[C@H](NC(=O)[C@H](Cc1ccccc1)NC(=O)[C@H](CC(=O)O)NC(=O)[C@H](CCCCN)NC(=O)[C@H](C)NC(=O)[C@H](C)NC(=O)[C@H](CCCCNC(=O)CC[C@H](NC(=O)CCCCCCCCCCCCCCCCC(=O)O)C(=O)O)NC(=O)[C@H](CCC(=O)O)NC(=O)[C@H](CC(=O)O)NC(=O)[C@H](CC(C)C)NC(=O)[C@H](Cc1ccc(O)cc1)NC(=O)[C@H](CCCCN)NC(=O)[C@H](CO)NC(=O)[C@H](Cc1ccc(O)cc1)NC(=O)[C@H](CC(=O)O)NC(=O)[C@H](CO)NC(=O)[C@@H](NC(=O)[C@H](Cc1ccccc1)NC(=O)[C@@H](NC(=O)CNC(=O)[C@H](CCC(N)=O)NC(=O)C1(NC(=O)[C@@H](N)Cc2c[nH]cn2)CCC1)[C@@H](C)O)[C@@H](C)O)C(=O)N[C@@H](CCC(=O)O)C(=O)N[C@@H](Cc1c[nH]c2ccccc12)C(=O)N[C@@H](CC(C)C)C(=O)N[C@@H](CCC(=O)O)C(=O)N[C@@H](CO)C(=O)N[C@@H](C)C(N)=O [Compound 11, H-H-Ac4c-QGTFTSDYSKYLDE-K([17-carboxy-heptadecanoyl]-isoGlu)-AAKDFIEWLESA-NH2] | 2.00
5 | CC[C@H](C)[C@H](NC(=O)[C@H](Cc1ccccc1)NC(=O)[C@H](CC(=O)O)NC(=O)[C@H](CCCCN)NC(=O)[C@H](C)NC(=O)[C@H](C)NC(=O)[C@H](CCCNC(=N)N)NC(=O)[C@H](CCC(=O)O)NC(=O)[C@H](CC(=O)O)NC(=O)[C@H](CC(C)C)NC(=O)[C@H](Cc1ccc(O)cc1)NC(=O)[C@H](CCCCN)NC(=O)[C@H](CO)NC(=O)[C@H](Cc1ccc(O)cc1)NC(=O)[C@H](CC(=O)O)NC(=O)[C@H](CO)NC(=O)[C@@H](NC(=O)[C@H](Cc1ccccc1)NC(=O)[C@@H](NC(=O)CNC(=O)[C@H](CCC(N)=O)NC(=O)C1(NC(=O)[C@@H](N)Cc2c[nH]cn2)CCC1)[C@@H](C)O)[C@@H](C)O)C(=O)N[C@@H](CCCCNC(=O)CNC(=O)CNC(=O)[C@H](CO)NC(=O)CNC(=O)[C@H](CO)NC(=O)CNC(=O)CC[C@H](NC(=O)CCCCCCCCCCCCCCCCC(=O)O)C(=O)O)C(=O)N[C@@H](Cc1c[nH]c2ccccc12)C(=O)N[C@@H](CC(C)C)C(=O)N[C@@H](CCC(=O)O)C(=O)N[C@@H](CO)C(=O)N[C@@H](C)C(N)=O [Compound 13] | 0.63
6 | CC[C@H](C)[C@H](NC(=O)[C@H](Cc1ccccc1)NC(=O)[C@H](CC(=O)O)NC(=O)[C@H](CCCCN)NC(=O)[C@H](C)NC(=O)[C@H](C)NC(=O)[C@H](CCCNC(=N)N)NC(=O)[C@H](CCC(=O)O)NC(=O)[C@H](CC(=O)O)NC(=O)[C@H](CC(C)C)NC(=O)[C@H](Cc1ccc(O)cc1)NC(=O)[C@H](CCCCN)NC(=O)[C@H](CO)NC(=O)[C@H](Cc1ccc(O)cc1)NC(=O)[C@H](CC(=O)O)NC(=O)[C@H](CO)NC(=O)[C@@H](NC(=O)[C@H](Cc1ccccc1)NC(=O)[C@@H](NC(=O)CNC(=O)[C@H](CCC(N)=O)NC(=O)C1(NC(=O)[C@@H](N)Cc2c[nH]cn2)CCC1)[C@@H](C)O)[C@@H](C)O)C(=O)N[C@@H](CCC(=O)O)C(=O)N[C@@H](Cc1c[nH]c2ccccc12)C(=O)N[C@@H](CC(C)C)C(=O)N[C@@H](CCC(=O)O)C(=O)N[C@@H](CCCCNC(=O)CNC(=O)CNC(=O)[C@H](CO)NC(=O)CNC(=O)[C@H](CO)NC(=O)CNC(=O)CC[C@H](NC(=O)CCCCCCCCCCCCCCCCC(=O)O)C(=O)O)C(=O)N[C@@H](C)C(N)=O [Compound 15] | 0.65

Same assay, conditions: cAMP formation, CHO cells expressing human GLP-1-R, 15 min; read-out: EC50 hGLP-1R CHO-K1

Row | SMILES | EC50 [nM]
7 | CC[C@H](C)[C@H](NC(=O)[C@H](Cc1ccccc1)NC(=O)[C@H](CC(=O)O)NC(=O)[C@H](CCCCN)NC(=O)[C@H](C)NC(=O)[C@H](C)NC(=O)[C@H](CCCNC(=N)N)NC(=O)[C@H](CCCCNC(=O)CNC(=O)CNC(=O)[C@H](CO)NC(=O)CNC(=O)[C@H](CO)NC(=O)CNC(=O)CC[C@H](NC(=O)CCCCCCCCCCCCCCCCC(=O)O)C(=O)O)NC(=O)[C@H](CC(=O)O)NC(=O)[C@H](CC(C)C)NC(=O)[C@H](Cc1ccc(O)cc1)NC(=O)[C@H](CCCCN)NC(=O)[C@H](CO)NC(=O)[C@H](Cc1ccc(O)cc1)NC(=O)[C@H](CC(=O)O)NC(=O)[C@H](CO)NC(=O)[C@@H](NC(=O)[C@H](Cc1ccccc1)NC(=O)[C@@H](NC(=O)CNC(=O)[C@H](CCC(N)=O)NC(=O)C1(NC(=O)[C@@H](N)Cc2c[nH]cn2)CCC1)[C@@H](C)O)[C@@H](C)O)C(=O)N[C@@H](CCC(=O)O)C(=O)N[C@@H](Cc1c[nH]c2ccccc12)C(=O)N[C@@H](CC(C)C)C(=O)N[C@@H](CCC(=O)O)C(=O)N[C@@H](CO)C(=O)N[C@@H](C)C(N)=O [Compound 7, H-H-Ac4c-QGTFTSDYSKYLD-K([17-carboxy-heptadecanoyl]-isoGlu-GSGSGG)-RAAKDFIEWLESA-NH2] | 0.97
